Measurements reported in patent US20220218714A1, “METHOD OF TREATING CANCER” (Epizyme, Inc., priority 2013, published 2022).

Legend:
[1] = system: H3K27me3 in HS-SY-II cells; experiment: H3K27 methylation alterations, ELISA of extracted histones; format: cell-based, human; settings: 96 hours treatment
Description: (§1) HS-SY-II and SW982 cells were treated with either DMSO or Compound A starting at 40 nmol/L and decreasing in fourfold dilutions for 96 hours. Cells were washed by ice cold PBS, harvested by cell scraper, and lysed with 100 μL of nuclear extraction buffer (10 mM Tris-HCl, 10 mM MgCl2, 25 mM KCl, 1% Triton X-100, 8.6% Sucrose, plus × Halt Protease inhibitor cocktail (1861281, Thermo Scientific). Nuclei were collected by centrifugation at 600 g for 5 minutes at 4° C. and washed once with ice cold PBS. Supernatant was removed and histones extracted for one hour with 100 μL of 0.4 N cold sulfuric acid. Extracts were clarified by centrifugation at 10,000 g for 10 minutes at 4° C. and transferred to a fresh microcentrifuge tube containing 1 mL of ice cold acetone. Histones were precipitated at −20° C. for overnight, pelleted by centrifugation at 10,000 g for 10 minutes and resuspended in 100 μl of water. Histones were quantified using the BCA protein assay (23225, Pierce). The diluted histones were coated on Immulon 4HBX plates (3855, Thermo Scientific) overnight and ELISA was performed. […] Subsequently, the developed colors in the wells were measured using a plate spectrophotometer (SpectraMax 250, Molecular Devices) at 450 nm (reference wavelength 650 nm).
(§2) The range of ICso values (two independent experiments), shown in FIG. 6B, were determined by GraphPad Prism (GraphPad Software).

H3K27me3 in SW982 cells = experiment: as above; format: cell-based, human; settings: 96 hours treatment
Description: as §1, §2

[2] = PK values in HS-SY-II xenograft model (plasma concentration, LC/MS/MS); format: in vivo, mice; settings: oral twice daily for 7 days; 5 minutes before and 3 hours after the last dose
Description: HS-SY-II cells were harvested during mid-log phase growth, and resuspended in Hank balanced salt solution with 50% Matrigel (BD Biosciences). Balb/C-nu mice (Charles River Laboratories Japan) received 1×10^7 cells (0.1 mL cell suspension) subcutaneously in the right flank. Mice carrying tumors of approximately 200 mm^3 (31 days after injection) were sorted into treatment groups with similar mean tumor volumes. Compound A or vehicle (0.5% MC+0.1% Tween-80 in water) was administered at the indicated doses on twice a day for 7 days by oral gavage. Each dose was delivered in a volume of 0.2 mL/20 g mouse (10 mL/kg), and adjusted for the last recorded weight of individual animals. Peripheral blood samples were collected at approximately 5 minutes before and 3 hours after the last dose from Compound A-treated mice. After obtaining plasma samples by centrifugation, the analysis for plasma concentrations of Compound A was conducted by the liquid chromatography-tandem mass spectrometry (LC/MS/MS) method. The UPLC system (Acquity, Waters) equipped with a mass spectrometer (Quattro premier, MICROMASS) was used for quantification of Compound A. The concentrations are plotted (n=5) in FIG. 7A. Each bar represents a mean of plasma concentration in each group.

HS-SY-II cells = experiment: Gene expression changes in vitro (RT-PCR, normalized to GAPDH); format: cell-based, human; settings: HS-SY-II in vitro culture
Description: ATF3, EGR1, CDKN2A and GAPDH expression were analyzed by using the TaqMan Gene Expression Assays (Life technologies, 4331182) and the TaqMan Probes (Hs00231069_ml, Hs00152928_ml, Hs00233365_ml, and Hs99999905_ml, respectively).

HS-SY-II xenograft = experiment: Gene expression changes in vivo in HS-SY-II xenograft model (RT-PCR); parameters: species or system mice; settings: 500 mg/kg oral twice daily for 7 days; 3 hours after last dose
Description: (§3) Tumor samples were collected at approximately 3 hours after the last dose from mice used in analysis for PK values and PD alterations. The tumor samples were stored using RNAlater (AM7020, Life technologies). Total RNA isolation and the reverse transcription were performed by RNeasy Mini Kit (74104, Qiagen) and High capacity cDNA Reverse Transcription kit (4368814, Life technologies) according to the manufacturer's instruction. The cDNA samples were used for real time-PCR as described above.
as §3, with “above. […] Additionally or alternatively, total RNAs were isolated from frozen tumor samples. The TruSeq' RNA Sample Prep Kit (Illumina) was used to build cDNA library for paired-end sequencing on the Illumina HiSeq (details described in Illumina TruSeq RNA Sample Preparation Guide). […] Paired-end reads from ˜50M clusters per sample were generated using TruSeq SBS kit on the Illumina HiSeq.” for “above.”

[3] = system: PDX of synovial sarcoma tumors; experiment: Tumor volume in patient-derived xenografts (PDX) of synovial sarcoma, 35 days dosing; format: in vivo, athymic nude mice; settings: two synovial sarcoma PDX; oral 125, 250 or 500/400 mg/kg for 35 days
Description: FIGS. 11A and 11C show mean in vivo tumor volumes for athymic nude mice bearing one of two different PDX of synovial sarcoma tumors. FIGS. 11B and 11D show percent survival for mice bearing a PDX. Mice were dosed with either vehicle (oral for 35 days), Compound A (oral: 125 mg/kg, 250 mg/kg, or 500/400 mg/kg for 35 days) or Doxorubicin (iv: 3 mg/kg, once a week for 3 weeks). FIGS. 11A and 11B show data from mice bearing PDX from high-grade spindle cell sarcoma. FIGS. 11C and 11D show data from mice bearing PDX.

SW982 cells = settings: SW982 in vitro culture

Compound: CCN(c1cc(-c2ccc(CN3CCOCC3)cc2)cc(C(=O)NCc2c(C)cc(C)[nH]c2=O)c1C)C1CCOCC1 [Compound A]
- ratio of H3K27me3/total H3 (ratio to control) [1]: decreased
- ratio of H3K27me3/total H3 (ratio to control) (H3K27me3 in SW982 cells): decreased
- plasma concentrations [2]: Dose dependent exposure
- ATF3 and EGR1 expression (HS-SY-II cells): upregulated
- CDKN2A expression (HS-SY-II cells): Dose- and time-dependent CDKN2A upregulation
- CDKN2A expression in tumor (HS-SY-II xenograft): significantly upregulated
- tumor volume [3]: dose-related tumor volume decrease
- ATF3 and EGR1 expression (SW982 cells): not in SW982
